Laboratory results: patent US20100075907A1, “NEUROMEDIN U RECEPTOR AGONISTS AND USES THEREOF” (priority 2006, published 2010)
pIC50: −log10 of the molar value. Non-standard residues stand in square brackets, D forms with d. Residues, ends and D or L forms follow the SMILES beside them. *: point of attachment. Succinimide(1-Et,3-yl) = CCN1C(=O)CC(*)C1=O

Key:
rat NMUR2 = rat NMUR2 (Rattus norvegicus, UniProt Q9ESQ4); assay: 125I-hNMU-25 binding assay, rat R2; parameters: expressed in transfected cells; host or cells: HEK-293 FLP-In cells (pcDNA5); conditions: for pIC50: binding
Procedure: (§1) Confluent cell monolayers expressing NMU receptors (the HEK cells described above) were harvested with phosphate buffered saline, collected by centrifugation, and resuspended in membrane buffer (50 mM TrisCl pH 7.4, 5 mM MgCl2, 1× Protease Inhibitor Cocktail, 10 μM phosphoramidon). After the cell pellet was homogenized, the solution was centrifuged at 18,000 rpm for 20 minutes at 4° C. The pellet was resuspended in membrane buffer to yield a final concentration of 0.5-5 μg/μL of membrane and stored at −80° C.
(§2) Experiments were performed in assay buffer (25 mM TrisCl, pH 7.4, 10 mM MgCl2, 2 mM EDTA, 1× Protease Inhibitor Cocktail, 100 μg/mL Bacitricin, 10 μM phosphoramidon) in 200 μL volumes in a 96-well format using 2-5 μg of membrane and 0.1 nM ^125I-hNMU-25 (about 12,000 cpm/well). For non-specific binding, 1 μM hNMU-25 was added. About 5 μL of peptides were added to measure antagonist activity, and the entire reaction was incubated at room temperature with shaking for 80 minutes. The reaction was terminated by rapid filtration through 0.3% poly-ethylenimine presoaked Millipore 96-well filter plates and washed with ice-cold buffer (5 mM TrisCl pH 7.4, 10 mM MgCl2, 2.5 mM EDTA, 0.04% Triton X-100). Plates were air-dried overnight at room temperature and recovered radioactivity was determined by standard scintillation counting. IC50 values were determined using GraphPad Prism software.
(§3) Concentration-response curves and radioligand-binding data were fitted using Prism (GraphPad Software). Results are summarized below in Tables 8 and 9.

hNMUR2 = hNMUR2 (Homo sapiens, UniProt Q9GZQ4); assay: FLIPR calcium mobilization assay, human NMUR2; format: cell-based; parameters: expressed in transfected cells; host or cells: FLP-In CHO or HEK-293 FLP-In cells (pcDNA5); HEK-293/aeq17 lines (pcDNA3.1) were also made; conditions: functional data, human R2
rat NMUR1-ATG = molecular target: T1, rat NMUR1-ATG (Rattus norvegicus, UniProt Q9JJI5); assay: 125I-hNMU-25 binding assay, rat R1-ATG; parameters: expressed in transfected cells; host or cells: HEK-293 FLP-In cells (pcDNA5); conditions: for pIC50: binding
T1 sequence (Q9JJI5 1-425): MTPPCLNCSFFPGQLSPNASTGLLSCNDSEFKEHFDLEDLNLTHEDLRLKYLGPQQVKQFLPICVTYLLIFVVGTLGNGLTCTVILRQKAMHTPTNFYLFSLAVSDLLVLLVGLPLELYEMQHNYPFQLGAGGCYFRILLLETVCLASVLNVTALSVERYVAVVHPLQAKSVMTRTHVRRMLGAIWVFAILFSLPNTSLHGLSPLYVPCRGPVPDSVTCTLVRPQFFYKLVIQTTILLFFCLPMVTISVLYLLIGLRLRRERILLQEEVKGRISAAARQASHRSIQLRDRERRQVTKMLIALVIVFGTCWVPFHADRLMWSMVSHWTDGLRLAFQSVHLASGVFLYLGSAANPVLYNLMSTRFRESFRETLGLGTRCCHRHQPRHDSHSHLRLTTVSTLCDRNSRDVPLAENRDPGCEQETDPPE
Procedure: as §1, §2, §3

mouse NMUR2 = mouse NMUR2 (Mus musculus, UniProt Q8BZ39); assay: 125I-hNMU-25 binding assay, mouse R2; parameters: expressed in transfected cells; host or cells: HEK-293 FLP-In cells (pcDNA5); conditions: for pIC50: binding
Procedure: as §1, §2, §3

Mouse NMUR1-CTG = molecular target: T2, Mouse NMUR1-CTG (Mus musculus, UniProt O55040); assay: 125I-hNMU-25 binding assay, mouse R1-CTG; parameters: expressed in transfected cells; host or cells: HEK-293 FLP-In cells (pcDNA5); conditions: for pIC50: binding
T2 sequence (O55040 1-428): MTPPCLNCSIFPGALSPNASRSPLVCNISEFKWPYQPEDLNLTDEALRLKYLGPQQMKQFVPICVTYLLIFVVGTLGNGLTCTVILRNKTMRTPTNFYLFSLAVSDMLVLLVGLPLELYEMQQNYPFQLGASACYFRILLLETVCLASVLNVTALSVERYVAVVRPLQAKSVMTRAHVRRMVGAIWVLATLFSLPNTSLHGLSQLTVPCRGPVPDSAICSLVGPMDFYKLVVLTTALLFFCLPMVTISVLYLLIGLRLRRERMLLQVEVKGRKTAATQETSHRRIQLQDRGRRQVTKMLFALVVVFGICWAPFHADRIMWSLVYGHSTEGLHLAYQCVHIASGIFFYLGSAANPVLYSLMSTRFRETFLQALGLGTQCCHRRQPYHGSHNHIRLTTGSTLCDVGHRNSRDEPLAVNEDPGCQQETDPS
Procedure: as §1, §2, §3

rat NMUR1-TTG = molecular target: T3, rat NMUR1-TTG (Rattus norvegicus, UniProt Q9JJI5); assay: 125I-hNMU-25 binding assay, rat R1-TTG; parameters: expressed in transfected cells; host or cells: HEK-293 FLP-In cells (pcDNA5); conditions: for pIC50: binding
T3 sequence (Q9JJI5 1-425): T1 sequence (Q9JJI5 1-425)
Procedure: as §1, §2, §3

mouse NMUR1-ATG = molecular target: T4, mouse NMUR1-ATG (Mus musculus, UniProt O55040); assay: 125I-hNMU-25 binding assay, mouse R1-ATG; parameters: expressed in transfected cells; host or cells: HEK-293 FLP-In cells (pcDNA5); conditions: for pIC50: binding
T4 sequence (O55040 1-428): T2 sequence (O55040 1-428)
Procedure: as §1, §2, §3

Sequence of hNMUR2 (Q9GZQ4 whole entry): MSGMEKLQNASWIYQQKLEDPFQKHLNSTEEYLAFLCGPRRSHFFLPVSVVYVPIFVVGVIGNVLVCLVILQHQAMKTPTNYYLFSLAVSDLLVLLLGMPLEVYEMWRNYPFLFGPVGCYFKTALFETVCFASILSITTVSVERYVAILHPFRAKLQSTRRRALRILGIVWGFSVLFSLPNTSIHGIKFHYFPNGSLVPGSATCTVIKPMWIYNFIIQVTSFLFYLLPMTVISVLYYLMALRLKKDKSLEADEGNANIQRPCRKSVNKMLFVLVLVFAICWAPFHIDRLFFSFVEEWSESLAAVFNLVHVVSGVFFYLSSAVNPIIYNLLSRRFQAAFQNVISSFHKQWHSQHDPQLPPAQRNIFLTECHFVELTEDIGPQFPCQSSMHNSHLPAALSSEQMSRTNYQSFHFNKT
Sequence of rat NMUR2 (Q9ESQ4 whole entry): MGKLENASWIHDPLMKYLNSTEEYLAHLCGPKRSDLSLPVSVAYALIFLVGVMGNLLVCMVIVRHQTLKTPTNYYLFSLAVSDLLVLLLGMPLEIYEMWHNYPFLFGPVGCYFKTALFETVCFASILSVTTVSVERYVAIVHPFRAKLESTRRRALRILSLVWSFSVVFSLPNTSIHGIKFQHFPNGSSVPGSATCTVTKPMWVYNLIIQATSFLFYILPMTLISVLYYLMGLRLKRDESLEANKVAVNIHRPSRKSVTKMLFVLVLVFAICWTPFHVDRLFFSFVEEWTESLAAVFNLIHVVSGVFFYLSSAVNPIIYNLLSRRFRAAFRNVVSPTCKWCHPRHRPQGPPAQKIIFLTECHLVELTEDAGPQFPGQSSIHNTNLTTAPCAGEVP
Sequence of mouse NMUR2 (Q8BZ39 whole entry): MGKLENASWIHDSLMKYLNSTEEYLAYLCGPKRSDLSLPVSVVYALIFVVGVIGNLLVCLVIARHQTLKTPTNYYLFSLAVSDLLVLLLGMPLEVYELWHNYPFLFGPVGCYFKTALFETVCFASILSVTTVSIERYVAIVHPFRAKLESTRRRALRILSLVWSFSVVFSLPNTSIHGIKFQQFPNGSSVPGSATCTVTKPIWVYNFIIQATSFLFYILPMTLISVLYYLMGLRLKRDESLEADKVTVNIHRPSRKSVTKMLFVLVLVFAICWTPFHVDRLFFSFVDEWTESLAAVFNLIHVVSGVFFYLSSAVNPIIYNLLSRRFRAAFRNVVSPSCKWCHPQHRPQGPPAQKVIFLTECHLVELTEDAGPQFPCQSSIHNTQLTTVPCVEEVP

In the case of CC(C)C[C@@H](NC(=O)[C@H](Cc1ccccc1)NC(=O)[C@H](Cc1ccc(O)cc1)NC(=O)CNC(=O)[C@H](CCCNC(=N)N)NC(=O)[C@H](CO)NC(=O)[C@H](CCC(N)=O)NC(=O)[C@H](CO)NC(=O)[C@H](C)NC(=O)[C@H](Cc1ccccc1)NC(=O)[C@@H]1CCCN1C(=O)[C@H](CO)NC(=O)[C@H](CCC(N)=O)NC(=O)[C@H](Cc1ccccc1)NC(=O)[C@H](CCC(=O)O)NC(=O)[C@H](CCC(=O)O)NC(=O)[C@H](CC(=O)O)NC(=O)[C@@H](NC(=O)[C@H](CCCNC(=N)N)NC(=O)[C@@H](N)Cc1ccccc1)C(C)C)C(=O)N[C@@H](Cc1c[nH]c2ccccc12)C(=O)N[C@@H](CCCNC(=N)N)C(=O)N1CCC[C@H]1C(=O)N[C@@H](CCCNC(=N)N)C(=O)N[C@@H](CC(N)=O)C(N)=O [Agonist H] (H-FRVDEEFQSPFASQSRGYF[dL]WRPRN-NH2; N-terminus assumed), the “% inhibition of NMU-25 binding” value (rat NMUR2) was 0%, the pIC50 (rat NMUR2) was less than 6.00 and the pIC50 (hNMUR2) was less than 6.00. The “% inhibition of NMU-25 binding” value (rat NMUR1-ATG) was 100%, the pIC50 (rat NMUR1-ATG) was 7.80 and the “% inhibition of NMU-25 binding” value (mouse NMUR2) was 20%. The pIC50 (mouse NMUR2) was less than 6.00, the “% inhibition of NMU-25 binding” value (Mouse NMUR1-CTG) was 83% and the pIC50 (Mouse NMUR1-CTG) was 7.60. For the same compound, the “% inhibition of NMU-25 binding” value (rat NMUR1-TTG) was 100%, the pIC50 (rat NMUR1-TTG) was 7.96 and the “% inhibition of NMU-25 binding” value (mouse NMUR1-ATG) was 77%. It also gave a pIC50 (mouse NMUR1-ATG) of 7.18.
CCN1C(=O)CC(SC[C@H](NC(C)=O)C(=O)N[C@@H](Cc2ccccc2)C(=O)N[C@@H](CCCNC(=N)N)C(=O)N[C@H](C(=O)N[C@@H](CC(=O)O)C(=O)N[C@@H](CCC(=O)O)C(=O)N[C@@H](CCC(=O)O)C(=O)N[C@@H](Cc2ccccc2)C(=O)N[C@@H](CCC(N)=O)C(=O)N[C@@H](CO)C(=O)N2CCC[C@H]2C(=O)N[C@@H](Cc2ccccc2)C(=O)N[C@@H](C)C(=O)N[C@@H](CO)C(=O)N[C@@H](CCC(N)=O)C(=O)N[C@@H](CO)C(=O)N[C@@H](CCCNC(=N)N)C(=O)NCC(=O)N[C@@H](Cc2ccc(O)cc2)C(=O)N[C@@H](Cc2ccccc2)C(=O)N[C@H](C)C(=O)N[C@@H](Cc2c[nH]c3ccccc23)C(=O)N[C@@H](CCCNC(=N)N)C(=O)N2CCC[C@H]2C(=O)N[C@@H](CCCNC(=N)N)C(=O)N[C@@H](CC(N)=O)C(N)=O)C(C)C)C1=O (some centres unmarked) [NMU13] (Ac-C(Succinimide(1-Et,3-yl))FRVDEEFQSPFASQSRGYF[dA]WRPRN-NH2) was tested, and the “% inhibition of NMU-25 binding” value (rat NMUR2) was 0%, the pIC50 (rat NMUR2) was less than 6.00 and the pIC50 (hNMUR2) was less than 6.00. The “% inhibition of NMU-25 binding” value (rat NMUR1-ATG) was 100%, the “% inhibition of NMU-25 binding” value (mouse NMUR2) was 30% and the pIC50 (mouse NMUR2) was less than 6.00. For the same compound, the “% inhibition of NMU-25 binding” value (Mouse NMUR1-CTG) was 100%, the “% inhibition of NMU-25 binding” value (rat NMUR1-TTG) was 100% and the “% inhibition of NMU-25 binding” value (mouse NMUR1-ATG) was 100%.
Compound “H-FRVDEEFQSPFASQSRGYFLFRPRN-NH2 [hNMU-25, reference compound]” has a pIC50 (rat NMUR2) of 9.22, a pIC50 (hNMUR2) of 9.10 and a pIC50 (rat NMUR1-ATG) of 8.92. For the same compound, the pIC50 (mouse NMUR2) was 9.70, the pIC50 (Mouse NMUR1-CTG) was 9.82 and the pIC50 (rat NMUR1-TTG) was 9.70. The pIC50 (mouse NMUR1-ATG) was 9.40.
